Measurements from patent publication US20240002416A1 (Rheinische-Friedrich-Wilhelms-Universität Bonn, priority 2020, published 2024).

Legend:
MRGPRX4-83S [1] = molecular target: T1, MRGPRX4-83S (Homo sapiens, UniProt Q96LA9, L83S); assay: β-arrestin assay (CHO β-arrestin human MRGPRX4-83S); format: cell-based; set-up: host or cells: CHO β-arrestin cells
How it was run: (§1)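 CHO cells, recombinant hMRGPRX4 → β-arrestin recruitment via β-gal complementation. Ca mobilization → recombinant astrocytes (83L) or native LN229 cells (83S).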

human MRGPRX4-83L [2] = molecular target: T2, human MRGPRX4-83L (Homo sapiens, UniProt Q96LA9); assay: β-arrestin assay (CHO β-arrestin ARMS1-ProLink 2 human MRGPRX4 83L); format: cell-based
T2 construct: host or cells: CHO β-arrestin cells
T2 sequence (Q96LA9 whole entry): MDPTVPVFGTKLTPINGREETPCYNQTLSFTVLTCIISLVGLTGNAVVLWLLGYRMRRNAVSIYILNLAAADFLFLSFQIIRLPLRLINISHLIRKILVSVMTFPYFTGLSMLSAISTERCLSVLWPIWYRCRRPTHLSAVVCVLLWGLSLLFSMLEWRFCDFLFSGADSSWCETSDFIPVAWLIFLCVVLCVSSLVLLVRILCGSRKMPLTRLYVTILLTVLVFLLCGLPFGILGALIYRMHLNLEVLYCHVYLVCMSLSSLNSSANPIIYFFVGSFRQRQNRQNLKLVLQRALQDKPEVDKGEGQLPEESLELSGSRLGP
How it was run: as §1

MRGPRX4-83S [3] = molecular target: T1, MRGPRX4-83S; assay: Calcium assay (human glioblastoma LN229 cells expressing the MRGPRX4-83S); format: cell-based; set-up: LN229 glioblastoma cells natively expressing the MRGPRX4-83S; endogenous in cells; host or cells: LN229 human glioblastoma cells; settings: for Emax: LN-229
How it was run: as §1

human MRGPRX4-83L [4] = molecular target: T2, human MRGPRX4-83L; assay: Calcium assay (human MRGPRX4 83L), recombinant astrocytes; format: cell-based
How it was run: as §1

[5] = Table 3, efficacy based on 100 nM B-16 (set as 100%), read-out: Emax
[6] = Table 3, β-arrestin recruitment, CHO cells, MRGPRX4-83S, read-out: EC50 ± SEM
[7] = Table 4, efficacy based on maximal effect of 100 nM B-16 (set as 100%), read-out: Emax
[8] = Table 4, β-arrestin recruitment, CHO cells, MRGPRX4-83L, read-out: EC50 ± SEM
[9] = Table 3, efficacy based on 30 μM H-1 (set as 100%), read-out: Emax
[10] = Table 3, calcium mobilization, LN229 cells, MRGPRX4-83S, read-out: EC50 ± SEM
[11] = Table 4, calcium mobilization, MRGPRX4-83L, read-out: EC50 ± SEM
[12] = Table 4, efficacy based on maximal effect of 1 μM B-16 (set as 100%), read-out: Emax
[13] = Table 2, efficacy based on 100 nM B-16 (set as 100%), read-out: Emax
[14] = Table 2, β-arrestin recruitment, CHO cells, MRGPRX4-83S, read-out: EC50 ± SEM
[15] = Table 1, efficacy based on maximal effect of 100 nM B-16 (set as 100%), read-out: Emax
[16] = Table 1, β-arrestin recruitment, CHO cells, MRGPRX4-83L, means of 3-4 experiments, read-out: EC50 ± SEM
[17] = Table 2, efficacy based on 30 μM H-1 (set as 100%), read-out: Emax
[18] = Table 2, calcium mobilization, LN229 cells, MRGPRX4-83S, read-out: EC50 ± SEM
[19] = Table 1, calcium mobilization, MRGPRX4-83L, read-out: EC50 ± SEM
[20] = Table 1, efficacy based on maximal effect of 1 μM B-16 (set as 100%), read-out: Emax

T1 sequence (Q96LA9 whole entry L83S): as the sequence (Q96LA9 whole entry) above, with L83S counted along it

Emax (MRGPRX4-83S [1]; [5]) [%] | EC50 (MRGPRX4-83S [1]; [6]) [nM] | melting point [°C] | Emax (MRGPRX4-83S [3]; [9]) [%] | EC50 (MRGPRX4-83S [3]; [10]) [nM] | SMILES | further results
110 | 0.146 ± 0.033 | 207 to 209 | 104 | 0.363 ± 0.109 | C#CCn1c(=O)c2c(nc(CCc3c(Cl)cccc3Cl)n2CC)n(CCCCP(=O)(O)O)c1=O [B-34, (4-(8-(2,6-Dichlorophenethyl)-7-ethyl-2,6-dioxo-1-(prop-2-yn-1-yl)-1,2,6,7-tetrahydro-3H-purin-3-yl)butyl)phosphonic acid] | Emax (human MRGPRX4-83L [2]; [7]): 95%; EC50 (human MRGPRX4-83L [2]; [8]): 9.02 ± 1.49 nM; EC50 (human MRGPRX4-83L [4]; [11]): 2 ± 0.94 nM; Emax (human MRGPRX4-83L [4]; [12]): 97%
 |  | 169 to 172 |  |  | C#CCn1c(=O)c2[nH]c(CCc3ccccc3OC)nc2n(CCCCP(=O)(O)O)c1=O [B-7, (4-(8-(2-Methoxyphenethyl)-2,6-dioxo-1-(prop-2-yn-1-yl)-1,2,6,7-tetrahydro-3H-purin-3-yl)butyl)phosphonic acid] | Emax (MRGPRX4-83S [1]; [13]): 101%; EC50 (MRGPRX4-83S [1]; [14]): 8.94 ± 1.38 nM; Emax (human MRGPRX4-83L [2]; [15]): 103%; EC50 (human MRGPRX4-83L [2]; [16]): 3120 ± 1200 nM; Emax (MRGPRX4-83S [3]; [17]): 132%; EC50 (MRGPRX4-83S [3]; [18]): 10.3 ± 1.3 nM; EC50 (human MRGPRX4-83L [4]; [19]): 397 ± 32 nM; Emax (human MRGPRX4-83L [4]; [20]): 108%
 |  | 240 to 242 |  |  | C#CCn1c(=O)c2[nH]c(CCc3cccc(Br)c3)nc2n(CCCCP(=O)(O)O)c1=O [B-4, (4-(8-(3-Bromophenethyl)-2,6-dioxo-1-(prop-2-yn-1-yl)-1,2,6,7-tetrahydro-3H-purin-3-yl)butyl)phosphonic acid] | Emax (MRGPRX4-83S [1]; [13]): 110%; EC50 (MRGPRX4-83S [1]; [14]): 3.24 ± 1.16 nM; Emax (human MRGPRX4-83L [2]; [15]): 103%; EC50 (human MRGPRX4-83L [2]; [16]): 2140 ± 850 nM; Emax (MRGPRX4-83S [3]; [17]): 109%; EC50 (MRGPRX4-83S [3]; [18]): 4.69 ± 1.58 nM; EC50 (human MRGPRX4-83L [4]; [19]): 80.8 ± 16.8 nM; Emax (human MRGPRX4-83L [4]; [20]): 100%
93 | 0.298 ± 0.05 | 167 to 169 | 97 | 0.32 ± 0.087 | C#CCn1c(=O)c2c(nc(CCc3ccccc3Br)n2CC2CCC2)n(CCCCP(=O)(O)O)c1=O [B-45, (4-(8-(2-Bromophenethyl)-7-(cyclobutylmethyl)-2,6-dioxo-1-(prop-2-yn-1-yl)-1,2,6,7-tetrahydro-3H-purin-3-yl)butyl)phosphonic acid] | Emax (human MRGPRX4-83L [2]; [7]): 99%; EC50 (human MRGPRX4-83L [2]; [8]): 85.1 ± 27.9 nM; EC50 (human MRGPRX4-83L [4]; [11]): 12.7 nM; Emax (human MRGPRX4-83L [4]; [12]): 101%
97 | 0.0424 ± 0.015 | 152 to 154 | 111 | 0.441 ± 0.157 | C#CCn1c(=O)c2c(nc(CCc3ccccc3C)n2CC)n(CCCCP(=O)(O)O)c1=O [B-32, (4-(7-Ethyl-8-(2-methylphenethyl)-2,6-dioxo-1-(prop-2-yn-1-yl)-1,2,6,7-tetrahydro-3H-purin-3-yl)butyl)phosphonic acid] | 
96 | 3.67 ± 1.21 | 111 to 113 | 57 | 51.4 ± 8.5 | C#CCn1c(=O)c2c(nc(CCc3ccc(OC)cc3)n2CC2CCCC2)n(CCCCP(=O)(O)O)c1=O [B-41, (4-(7-(cyclopentylmethyl)-8-(4-methoxyphenethyl)-2,6-dioxo-1-(prop-2-yn-1-yl)-1,2,6,7-tetra-hydro-3H-purin-3-yl)butyl)phosphonic acid] | 
103 | 0.0751 ± 0.0229 | 105 to 107 | 119 | 0.491 ± 0.192 | C#CCn1c(=O)c2c(nc(CCc3ccccc3Br)n2C(C)CC)n(CCCCP(=O)(O)O)c1=O (stereo not shown) [B-49, (4-(8-(2-bromophenethyl)-7-(sec-butyl)-2,6-dioxo-1-(prop-2-yn-1-yl)-1,2,6,7-tetrahydro-3H-purin-3-yl)butyl)phosphonic acid] | 

More lines, now with the values behind:

SMILES | Emax (MRGPRX4-83S [1]; [5]) [%] | EC50 (MRGPRX4-83S [1]; [6]) [nM] | melting point [°C] | Emax (MRGPRX4-83S [3]; [9]) [%] | EC50 (MRGPRX4-83S [3]; [10]) [nM] | further results
C#CCn1c(=O)c2c(nc(CCc3ccc(Br)cc3)n2CC2CCCC2)n(CCCCP(=O)(O)O)c1=O [B-38, (4-(8-(4-Bromophenethyl)-7-(cyclopentylmethyl)-2,6-dioxo-1-(prop-2-yn-1-yl)-1,2,6,7-tetrahydro-3H-purin-3-yl)butyl)phosphonic acid] | 79 | 13.4 ± 0.8 | 129 to 131 | 6 | 5.81 ± 0.58 | Emax (human MRGPRX4-83L [2]; [7]): 92%; EC50 (human MRGPRX4-83L [2]; [8]): 1.44 ± 0.32 nM; IC50 (MRGPRX4-83S [3]): 5.23 ± 2.2 nM; IC50 (human MRGPRX4-83L [4]): 949 ± 308 nM; EC50 (human MRGPRX4-83L [4]; [11]): 267 ± 153 nM; Emax (human MRGPRX4-83L [4]; [12]): 9%
C#CCn1c(=O)c2c(nc(CCc3ccccc3Br)n2CCCl)n(CCCCP(=O)(O)O)c1=O [B-50, (4-(8-(2-Bromophenethyl)-7-(2-chloroethyl)-2,6-dioxo-1-(prop-2-yn-1-yl)-1,2,6,7-tetrahydro-3H-purin-3-yl)butyl)phosphonic acid] |  |  | 197 to 199 |  |  | EC50 (MRGPRX4-83S [1]): 0.301 ± 0.021 nM; Emax (MRGPRX4-83S [1]): 84%; EC50 (human MRGPRX4-83L [2]): 24.3 ± 3.2 nM; Emax (human MRGPRX4-83L [2]): 91%; EC50 (MRGPRX4-83S [3]): 0.095 ± 0.0427 nM; Emax (MRGPRX4-83S [3]): 111%; EC50 (human MRGPRX4-83L [4]): 2.28 ± 0.75 nM; Emax (human MRGPRX4-83L [4]): 118%
C#CCn1c(=O)c2c(nc(CCc3ccc(I)cc3)n2CC2CCCC2)n(CCCCP(=O)(O)O)c1=O [B-39, (4-(7-(cyclopentylmethyl)-8-(4-iodophenethyl)-2,6-dioxo-1-(prop-2-yn-1-yl)-1,2,6,7-tetrahydro-3H-purin-3-yl)butyl)phosphonic acid] | 76 | 0.773 ± 0.106 | 119 to 121 | 23 | 143 ± 66 | IC50 (MRGPRX4-83S [3]): 16.1 ± 8.4 nM
C#CCn1c(=O)c2c(nc(CCc3ccccc3C)n2C(C)C)n(CCCCP(=O)(O)O)c1=O [B-48, (4-(7-Isopropyl-8-(2-methylphenethyl)-2,6-dioxo-1-(prop-2-yn-1-yl)-1,2,6,7-tetrahydro-3H-purin-3-yl)butyl)phosphonic acid] | 102 | 0.0705 ± 0.0198 | 88 to 90 | 154 | 0.984 ± 0.054 | 
C#CCn1c(=O)c2c(nc(CCc3ccc(C(F)(F)F)cc3)n2CC2CCCC2)n(CCCCP(=O)(O)O)c1=O [B-40, (4-(7-(cyclopentylmethyl)-2,6-dioxo-1-(prop-2-yn-1-yl)-8-(4-(trifluoromethyl)phenethyl)-1,2,6,7-tetrahydro-3H-purin-3-yl)butyl)phosphonic acid] | 77 | 18.3 ± 6.1 | 101 to 102 | 8 | 23.7 ± 0.7 | IC50 (MRGPRX4-83S [3]): 13 ± 1.4 nM
